This is an account of results in ChEMBL document CHEMBL1152073, “Synthesis of novel fluorescently labeled sphingomyelin derivatives useful for sphingomyelinase assay” (Bioorg Med Chem Lett, 1997).

The test has as its target T1, Sphingomyelin phosphodiesterase (Homo sapiens) (UniProt P17405).
T1 sequence (whole entry): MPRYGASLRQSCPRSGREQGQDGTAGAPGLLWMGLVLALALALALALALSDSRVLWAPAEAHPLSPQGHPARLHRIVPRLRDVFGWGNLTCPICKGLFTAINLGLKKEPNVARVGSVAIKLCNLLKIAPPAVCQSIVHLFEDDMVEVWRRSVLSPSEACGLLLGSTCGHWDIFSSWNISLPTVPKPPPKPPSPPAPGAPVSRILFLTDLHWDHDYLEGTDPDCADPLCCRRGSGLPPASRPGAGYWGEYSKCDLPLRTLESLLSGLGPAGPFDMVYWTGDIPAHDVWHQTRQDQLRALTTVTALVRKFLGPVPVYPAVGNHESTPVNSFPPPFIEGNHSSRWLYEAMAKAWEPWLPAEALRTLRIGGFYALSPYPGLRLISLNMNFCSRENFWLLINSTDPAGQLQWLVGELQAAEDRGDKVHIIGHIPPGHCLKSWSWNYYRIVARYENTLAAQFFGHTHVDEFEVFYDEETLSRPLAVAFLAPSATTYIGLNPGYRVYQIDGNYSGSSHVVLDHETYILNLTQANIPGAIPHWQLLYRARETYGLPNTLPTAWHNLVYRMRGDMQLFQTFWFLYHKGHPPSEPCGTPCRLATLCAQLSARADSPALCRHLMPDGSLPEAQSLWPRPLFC
Nature of the test: Compound was evaluated as a substrate for human placental acidic sphingomyelinase utilizing the usual substrate C14-labeled sphingomyelin.
For `CCCCCCCCCCCCC/C=C/[C@@H](O)[C@H](COP(=O)(O)OCCCCCCNc1ccc([N+](=O)[O-])c2nonc12)NC(=O)CCCCCNC(=O)CCCC[C@@H]1SC[C@@H]2NC(=O)N[C@@H]21`, the Cleavage rate turned out to be 0.29 nM U-1 hr-1.

The compound `CCCCCCCCCCCCC/C=C/[C@@H](O)[C@H](COP(=O)(O)OCCCCNS(=O)(=O)c1cccc2c(N(C)C)cccc12)NC(=O)CCCCCNC(=O)CCCC[C@@H]1SC[C@@H]2NC(=O)N[C@@H]21` gave a Cleavage rate of 0.51 nM U-1 hr-1.

`CCCCCCCCCCCCC/C=C/[C@@H](O)[C@H](COP(=O)(O)OCC[N+](C)(C)CCNS(=O)(=O)c1cccc2c(N(C)C)cccc12)NC(=O)CCCCCCCCCCCCCCCCCCC` registered a Cleavage rate of 1.32 nM U-1 hr-1.

`CCCCCCCCCCCCC/C=C/[C@@H](O)[C@H](COP(=O)([O-])OCC[N+](C)(C)C)NC(=O)CCCCCCCCCCCCCCCCCCC` came in with a Cleavage rate of 1.72 nM U-1 hr-1.
